Experimental data taken from patent US6451733B1, “Synergistic herbicidal methods and compositions” (BASF Aktiengesellschaft, priority 1999, dated 2002).

What was measured:
Assay in all cases: Field trial, post-emergence weed control
Format in all cases: in vivo
[1] = test system: Setaria viridis
Protocol: (§1) In the following examples, synergism for two-way combinations is determined by the Colby^1 method, i.e. the expected (or predicted) response of the combination is calculated by taking the product of the observed response for each individual component of the combination when applied alone divided by 100 and subtracting this value from the sum of the observed response for each component when applied alone. Synergism of the combination is then determined by comparing the observed response of the combination to the expected (or predicted) response as calculated from the observed responses of each individual component alone. If the observed response of the combination is greater than the expected (or predicted) response then the combination is said to be synergistic and falls within the definition of synergistic effect as previously defined.
(§2) In similar manner for the case of three-way combination, C3; is composed of component X plus component Y plus […] and Obs. designates the observed response of the combination C3. [formula]
(§3) Grassy and broadleaved weeds are either seeded perpendicular to the direction of the crop or broadcast in early to mid-May. The crop is seeded after the weed seed. Row width is 18 cm. The seed is drilled in with a Roger's 1.8 m width drill to a depth of 5 cm.
(§4) All trials employ standard accepted weed science procedures. Applications are made with a Roger's CO2-powered shrouded sprayer. Test design is a modified randomized complete block design with four replications. All applications are made post-emergence to the weeds and crop.
(§5) The test solutions are prepared by tank-mixing sufficient quantities of aqueous solutions and/or dispersions of the test compounds.
(§6) The treated plots are examined at intervals during the growing season and rated for percent control of weeds and crop injury. The data listed is an average of the replicates for that treatment. The Colby method of analysis is used to determine the resultant biological effect of the combination treatment as compared to the biological effect of each component when applied alone.

[2] = test system: Chenopodium album
Protocol: as §1, §2, §3, §4, §5, §6

[3] = test system: Galeopsis tetrahit
Protocol: as §1, §2, §3, §4, §5, §6

[4] = test system: Galium aparine
Protocol: as §1, §2, §3, §4, §5, §6

[5] = test system: Stellaria media
Protocol: as §1, §2, §3, §4, §5, §6

[6] = test system: Vaccaria pyramaidata
Protocol: as §1, §2, §3, §4, §5, §6

[7] = test system: Sinapis arvensis
Protocol: as §1, §2, §3, §4, §5, §6

[8] = test system: Salsola kali
Protocol: as §1, §2, §3, §4, §5, §6

[9] = test system: Kochia scoparia
Protocol: as §1, §2, §3, §4, §5, §6

[10] = test system: Brassica napus
Protocol: as §1, §2, §3, §4, §5, §6

[11] = test system: Avena fatua
Protocol: as §1, §2, §3, §4, §5, §6

[12] = test system: Polygonum convolvulus
Protocol: as §1, §2, §3, §4, §5, §6

[13] = test system: Polygonum (smartweed) spp.
Protocol: as §1, §2, §3, §4, §5, §6

[14] = test system: Brassica napus (imidazolinone tolerant)
Protocol: Synergism of the combination is then determined by comparing the observed response of the combination to the expected (or predicted) response as calculated from the observed responses of each individual component alone. If the observed response of the combination is greater than the expected (or predicted) response then the combination is said to be synergistic and falls within the definition of synergistic effect as previously defined.
as §2, §3, §4, §5, §6

[15] = test system: Amaranthus retroflexus
Protocol: as §1, §3, §4, §5, §6

## O=C(O)COc1ccc(Cl)cc1Cl [2,4-D, 2,4-dichlorophenoxyacetic acid]
[1]; 280 g/ha
  Percent Control: 0%
[2]; 280 g/ha
  Percent Control: 91%
[3]; 280 g/ha
  Percent Control: 2%
[4]; 280 g/ha
  Percent Control: 43%
[5]; 280 g/ha
  Percent Control: 10%
[6]; 280 g/ha
  Percent Control: 51%
[7]; 280 g/ha
  Percent Control: 92%
[8]; 280 g/ha
  Percent Control: 35%
[9]; 280 g/ha
  Percent Control: 52%
[10]; 280 g/ha
  Percent Control: 93%
[11]; 280 g/ha
  Percent Control: 2%
[12]; 280 g/ha
  Percent Control: 48%
[13]; 280 g/ha
  Percent Control: 53%
[14]; 280 g/ha
  Percent Control: 94%

## O=C(O)c1nc(Cl)ccc1Cl [clopyralid]
[2]; 150 g/ha
  Percent Control: 51%
[4]; 150 g/ha
  Percent Control: 0%
[5]; 150 g/ha
  Percent Control: 10%
[7]; 150 g/ha
  Percent Control: 16%
[10]; 150 g/ha
  Percent Control: 12%
[14]; 150 g/ha
  Percent Control: 8%

## CCOC(=O)[C@@H](C)Oc1ccc(Oc2nc3ccc(Cl)cc3o2)cc1 [fenoxaprop-p-ethyl]
[1]; 72 g/ha
  Percent Control: 98%
[2]; 72 g/ha
  Percent Control: 0%
[6]; 72 g/ha
  Percent Control: 0%
[7]; 72 g/ha
  Percent Control: 0%
[10]; 72 g/ha
  Percent Control: 0%
[12]; 72 g/ha
  Percent Control: 0%
[15]; 72 g/ha
  Percent Control: 9%
[14]; 72 g/ha
  Percent Control: 0%

## O=C(Nc1ccc(F)cc1)c1cccc(Oc2cccc(C(F)(F)F)c2)n1 [picolinafen]
[1]; 50 g/ha
  Percent Control: 14%
[2]; 50 g/ha
  Percent Control: 57%
[3]; 50 g/ha
  Percent Control: 59%
[4]; 50 g/ha
  Percent Control: 28%
[5]; 50 g/ha
  Percent Control: 64%
[6]; 50 g/ha
  Percent Control: 63%
[7]; 50 g/ha
  Percent Control: 78%
[8]; 50 g/ha
  Percent Control: 56%
[9]; 50 g/ha
  Percent Control: 59%
[10]; 50 g/ha
  Percent Control: 70%
[11]; 50 g/ha
  Percent Control: 5%
[12]; 50 g/ha
  Percent Control: 54%
[13]; 50 g/ha
  Percent Control: 26%
[15]; 50 g/ha
  Percent Control: 90%
[14]; 50 g/ha
  Percent Control: 65%

## CCO/N=C(\CC)C1=C(O)CC(c2c(C)cc(C)cc2C)CC1=O (centres unmarked) [tralkoxydim]
[2]; 200 g/ha
  Percent Control: 0%
[6]; 200 g/ha
  Percent Control: 0%
[7]; 200 g/ha
  Percent Control: 0%
[10]; 200 g/ha
  Percent Control: 0%
[11]; 200 g/ha
  Percent Control: 97%
[12]; 200 g/ha
  Percent Control: 0%
[15]; 200 g/ha
  Percent Control: 1%
[14]; 200 g/ha
  Percent Control: 0%

## imazamethabenz methyl
[1]; 400 g/ha
  Percent Control: 10%
[2]; 400 g/ha
  Percent Control: 18%
[3]; 400 g/ha
  Percent Control: 4%
[4]; 400 g/ha
  Percent Control: 48%
[5]; 400 g/ha
  Percent Control: 8%
[6]; 400 g/ha
  Percent Control: 20%
[8]; 400 g/ha
  Percent Control: 9%
[9]; 400 g/ha
  Percent Control: 31%
[11]; 400 g/ha
  Percent Control: 88%
[13]; 400 g/ha
  Percent Control: 76%
[14]; 400 g/ha
  Percent Control: 0%
